Data: patent US8048927B2 (Besins Healthcare Luxembourg, priority 2004, dated 2011)

Details: human, in vivo
Description: The patients received [^3H]-labeled drug applied directly on the affected breasts at specified intervals ranging from 12 hours to 7 days before surgery to excise diseased tissue. Breast tissue from three regions: the tumor, tissue immediately surrounding the tumor, and normal tissue, was excised and immediately frozen in liquid nitrogen. Additionally, plasma and urine samples were obtained at scheduled intervals and frozen until analysis.

## CCC(=C(c1ccc(O)cc1)c1ccc(OCCN(C)C)cc1)c1ccccc1 [4-hydroxy tamoxifen, 1-[4-(2-N-dimethylaminoethoxy)phenyl]-1-(4-hydroxyphenyl)-2-phenylbut-1-ene]
  metabolism in cytosolic and nuclear fractions of breast tissue: remained unmetabolized except for limited isomerization from the Z to the E form
  retention in the breast: approximately 4 days
  subcellular distribution in breast tissue: concentrated predominantly in the cytosolic and nuclear fractions of breast tissue
